In one assay the target is Nonstructural protein 1 (Influenza A virus, UniProt Q194T2). The assay is classed as functional, Influenza A virus (A/California/07/2009(H1N1)).
The subject of assay [1] is MDCK. The experiment in a line: antiviral activity against H1N1 influenza, dose response, cell-based, strain KY136 (AID 540257). The assay is classed as functional. The note with it: Canis lupus familiaris.
In assay [2] the test system is MDCK. The experiment in a line: antiviral activity against H1N1 influenza, dose response, cell-based, strain KY180 (AID 540254). The class given is functional. The note with it: Canis lupus familiaris.
Assay [3] deals with T1, High affinity choline transporter 1 (Homo sapiens, UniProt Q9GZV3).
T1 sequence (Q9GZV3 whole entry): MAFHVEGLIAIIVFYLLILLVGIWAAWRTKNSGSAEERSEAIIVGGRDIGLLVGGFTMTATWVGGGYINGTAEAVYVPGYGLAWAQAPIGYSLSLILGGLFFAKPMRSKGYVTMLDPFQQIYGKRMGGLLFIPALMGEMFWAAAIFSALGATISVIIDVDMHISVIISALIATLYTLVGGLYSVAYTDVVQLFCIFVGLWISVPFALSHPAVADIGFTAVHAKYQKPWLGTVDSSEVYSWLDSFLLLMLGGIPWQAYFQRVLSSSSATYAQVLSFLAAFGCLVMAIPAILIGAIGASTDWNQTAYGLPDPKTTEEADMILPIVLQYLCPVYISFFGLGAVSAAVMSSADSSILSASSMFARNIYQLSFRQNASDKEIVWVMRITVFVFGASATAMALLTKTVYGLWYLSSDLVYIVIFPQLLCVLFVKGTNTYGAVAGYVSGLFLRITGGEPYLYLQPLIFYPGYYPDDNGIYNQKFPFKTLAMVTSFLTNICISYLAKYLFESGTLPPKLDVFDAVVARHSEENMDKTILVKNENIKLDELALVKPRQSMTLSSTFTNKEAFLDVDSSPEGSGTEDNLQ
The experiment in a line: CHT inhibitors, dose response, cell-based, 5-point CRC, membrane potential dye (AID 504840). The class given is functional.

In assay [4] the test system is MDCK. The assay is described as follows: MDCK cell cytotoxicity, dose response, cytotoxicity control (AID 540296). The class given is functional. The note with it: Canis lupus familiaris.
Another assay relates to Vero. The experiment in a line: Vero E6 cell cytotoxicity, dose response, cytotoxicity control (AID 540298). The class given is functional. The note with it: Chlorocebus sabaeus.
Assay [5] addresses Beta-2 adrenergic receptor (Homo sapiens, UniProt P07550). The experiment in a line: beta2AR agonists driving receptor internalization, dose response, cell-based, FAP fluorogen, flow cytometry, cherry pick 1 (AID 588763). The assay is classed as functional. A general note: A flow cytometer gives signals particle by particle.
Assay [6] relates to HEK293. The experiment in a line: inhibitors of LMP1-driven NF-kB reporter, dose response, cell-based, HEK293, luciferase, cherry-pick (AID 588343). The class given is functional. The note with it: Homo sapiens.
The next assay deals with Exodeoxyribonuclease V (Escherichia coli (strain K12), UniProt P04993+P07648+P08394). The experiment in a line: E. coli RecBCD inhibitors, dose response, counter-screen for AddAB inhibitor project, absorbance, V66 E. coli, mutant T4 phage (AID 492957). The assay is classed as functional, cell-based, Escherichia coli str. K-12 substr. MG1655. A general note: Counterscreens check selectivity or assay interference.
Chain of Exodeoxyribonuclease V (P04993 whole entry): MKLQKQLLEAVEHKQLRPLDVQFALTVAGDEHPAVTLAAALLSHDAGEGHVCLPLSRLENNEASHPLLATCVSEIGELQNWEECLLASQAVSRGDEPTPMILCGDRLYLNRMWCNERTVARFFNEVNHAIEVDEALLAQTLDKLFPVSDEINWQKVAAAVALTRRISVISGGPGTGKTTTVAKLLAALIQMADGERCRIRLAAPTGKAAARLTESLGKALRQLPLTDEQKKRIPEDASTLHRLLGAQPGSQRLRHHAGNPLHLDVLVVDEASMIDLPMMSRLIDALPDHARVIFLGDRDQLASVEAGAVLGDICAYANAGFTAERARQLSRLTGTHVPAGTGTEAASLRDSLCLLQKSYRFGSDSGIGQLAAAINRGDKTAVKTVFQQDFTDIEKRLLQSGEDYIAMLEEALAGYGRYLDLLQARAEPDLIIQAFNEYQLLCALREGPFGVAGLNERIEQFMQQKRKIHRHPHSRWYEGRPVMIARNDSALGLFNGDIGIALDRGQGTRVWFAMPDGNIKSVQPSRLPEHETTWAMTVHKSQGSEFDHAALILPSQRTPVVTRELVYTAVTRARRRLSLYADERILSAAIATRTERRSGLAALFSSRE
Chain of Exodeoxyribonuclease V (P07648 whole entry): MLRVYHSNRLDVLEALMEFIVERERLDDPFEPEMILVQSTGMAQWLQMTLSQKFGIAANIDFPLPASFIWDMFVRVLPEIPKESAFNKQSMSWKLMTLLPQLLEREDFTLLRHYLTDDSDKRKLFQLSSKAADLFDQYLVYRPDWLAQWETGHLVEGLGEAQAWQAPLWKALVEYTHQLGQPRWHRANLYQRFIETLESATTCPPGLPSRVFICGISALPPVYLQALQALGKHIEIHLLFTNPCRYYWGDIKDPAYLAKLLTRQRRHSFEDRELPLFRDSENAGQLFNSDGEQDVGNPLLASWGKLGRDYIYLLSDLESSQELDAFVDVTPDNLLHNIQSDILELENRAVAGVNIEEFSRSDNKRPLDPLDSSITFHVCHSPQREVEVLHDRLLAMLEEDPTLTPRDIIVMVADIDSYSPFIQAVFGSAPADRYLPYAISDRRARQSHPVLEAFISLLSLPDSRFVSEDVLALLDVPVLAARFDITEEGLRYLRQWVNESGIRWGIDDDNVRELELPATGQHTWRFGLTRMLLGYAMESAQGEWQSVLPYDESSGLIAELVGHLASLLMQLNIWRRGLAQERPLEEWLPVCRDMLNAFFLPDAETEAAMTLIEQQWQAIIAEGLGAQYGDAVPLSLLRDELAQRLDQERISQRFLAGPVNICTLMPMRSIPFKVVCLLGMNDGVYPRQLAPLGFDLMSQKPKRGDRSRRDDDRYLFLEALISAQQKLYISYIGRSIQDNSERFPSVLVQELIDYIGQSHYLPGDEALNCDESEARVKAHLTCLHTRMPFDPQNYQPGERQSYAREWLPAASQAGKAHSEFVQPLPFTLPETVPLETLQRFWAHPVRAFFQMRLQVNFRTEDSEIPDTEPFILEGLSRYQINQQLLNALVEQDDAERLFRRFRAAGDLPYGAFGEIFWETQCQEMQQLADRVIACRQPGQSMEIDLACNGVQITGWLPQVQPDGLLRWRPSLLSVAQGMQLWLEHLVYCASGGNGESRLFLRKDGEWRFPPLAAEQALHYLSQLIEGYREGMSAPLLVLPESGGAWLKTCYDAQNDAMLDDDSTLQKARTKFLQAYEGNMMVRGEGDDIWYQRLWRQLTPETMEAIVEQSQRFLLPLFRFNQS
Chain of Exodeoxyribonuclease V (P08394 whole entry): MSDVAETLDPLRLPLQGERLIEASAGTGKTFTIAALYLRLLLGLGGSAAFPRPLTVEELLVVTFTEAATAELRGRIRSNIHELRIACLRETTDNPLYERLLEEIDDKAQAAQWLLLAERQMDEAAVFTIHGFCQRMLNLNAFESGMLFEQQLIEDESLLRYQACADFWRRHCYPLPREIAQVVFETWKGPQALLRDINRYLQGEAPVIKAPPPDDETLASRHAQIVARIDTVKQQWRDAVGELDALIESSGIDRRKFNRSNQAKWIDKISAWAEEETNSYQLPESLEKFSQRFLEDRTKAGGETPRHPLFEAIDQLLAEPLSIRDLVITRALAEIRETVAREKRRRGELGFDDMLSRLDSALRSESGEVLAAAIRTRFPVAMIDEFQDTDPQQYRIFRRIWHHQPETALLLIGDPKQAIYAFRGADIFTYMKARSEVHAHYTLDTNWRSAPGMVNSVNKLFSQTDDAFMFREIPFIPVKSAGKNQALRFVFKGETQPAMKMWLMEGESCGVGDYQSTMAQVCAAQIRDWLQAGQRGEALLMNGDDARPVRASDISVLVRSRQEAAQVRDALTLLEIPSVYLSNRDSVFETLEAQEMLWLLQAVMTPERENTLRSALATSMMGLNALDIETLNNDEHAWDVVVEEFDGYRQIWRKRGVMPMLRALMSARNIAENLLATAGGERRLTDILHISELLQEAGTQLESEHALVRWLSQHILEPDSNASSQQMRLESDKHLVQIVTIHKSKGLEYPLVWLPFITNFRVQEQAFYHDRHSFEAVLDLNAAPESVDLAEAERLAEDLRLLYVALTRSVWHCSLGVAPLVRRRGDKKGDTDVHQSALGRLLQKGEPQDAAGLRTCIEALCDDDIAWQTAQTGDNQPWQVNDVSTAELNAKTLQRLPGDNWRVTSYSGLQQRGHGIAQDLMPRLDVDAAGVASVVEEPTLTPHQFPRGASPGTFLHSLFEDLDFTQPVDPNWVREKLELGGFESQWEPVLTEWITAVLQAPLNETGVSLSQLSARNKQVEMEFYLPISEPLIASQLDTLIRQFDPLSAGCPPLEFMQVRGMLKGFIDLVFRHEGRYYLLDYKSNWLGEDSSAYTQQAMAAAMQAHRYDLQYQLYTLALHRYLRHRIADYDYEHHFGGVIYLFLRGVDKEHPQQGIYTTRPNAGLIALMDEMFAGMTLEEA

Assay [7] has as its system Jurkat. The assay is described as follows: SAR Analysis of small molecule inhibitors of T-cell specific antigen receptor-induced NF-kB activation in a Jurkat cell line using a luminescence assay. [Related pubchem assays (depositor defined):AID435003, AID435012, AID465]. The class given is functional, cell-based. Conditions: Homo sapiens.
Assay [8] is described as follows: C. albicans growth with fluconazole, confirmation, fluorescence, retest (AID 2467). The assay is classed as functional, cell-based.
Assay [9] concerns HEK293. The assay is described as follows: SAR Analysis of small molecule inhibitors of T-cell specific antigen receptor-induced NF-kB activation in a HEK-293T cell line using a luminescence assay. [Related pubchem assays (depositor defined):AID435003, AID435012, AID489026]. The assay is classed as functional, cell-based. The note with it: Homo sapiens.
The target in another assay is T2, Streptokinase A (Streptococcus pyogenes serotype M1, UniProt P10520).
T2 sequence (P10520 whole entry): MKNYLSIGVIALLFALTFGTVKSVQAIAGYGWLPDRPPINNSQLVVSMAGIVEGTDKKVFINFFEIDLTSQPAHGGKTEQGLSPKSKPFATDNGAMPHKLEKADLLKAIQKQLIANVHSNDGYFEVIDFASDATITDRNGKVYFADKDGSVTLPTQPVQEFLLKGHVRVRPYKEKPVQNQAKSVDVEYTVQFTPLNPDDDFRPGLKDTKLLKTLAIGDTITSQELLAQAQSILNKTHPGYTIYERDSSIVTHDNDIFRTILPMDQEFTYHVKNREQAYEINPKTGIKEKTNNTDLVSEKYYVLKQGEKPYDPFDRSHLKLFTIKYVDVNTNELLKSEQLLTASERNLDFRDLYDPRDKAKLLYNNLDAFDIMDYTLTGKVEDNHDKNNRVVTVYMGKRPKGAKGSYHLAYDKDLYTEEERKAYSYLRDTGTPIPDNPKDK
The experiment in a line: S. pyogenes streptokinase expression inhibitors, potency, dose response, plasminogen activation absorbance, OD405 (AID 1914).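 Further: secreted streptokinase activity via plasminogen activation per viability signal from cell pellet.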 The class given is functional, Streptococcus pyogenes M1 GAS.

The target of assay [10] is Heat shock protein HSP 90-alpha (Homo sapiens, UniProt P07900). The assay is classed as functional, organism-based.
The nature of assay [11]: inhibitors of intracellular T. cruzi replication, confirmation, NIH3T3 host cells, beta-gal luminescence (AID 2044).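 Further: intracellular parasites grown in NIH/3T3 mouse fibroblasts as host cells; luminescent beta-galactosidase reporter signal from transgenic T. cruzi replicating inside host cells; inhibitors lower the luminescence signal.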 The class given is functional, cell-based.
The nature of assay [12]: Luminescence-based dose response cell-based high throughput screening assay for cytotoxic compounds using the IEC-6 intestinal epithelial cell line. [Related pubchem assays: 1858 (Summary AID.), 1825 (Counterscreen.), 1907 (Confirmation screen.)]. The class given is functional.
Assay [13] is described as follows: Counterscreen for AddAB inhibitors: absorbance-based bacterial cell-based high throughput dose response assay for inhibitors of bacterial viability. [Related pubchem assays (depositor defined):AID435030, AID449728, AID449731, AID488942, AID488955, AID488956]. The class given is functional.
Assay [14] deals with Jurkat. The assay is described as follows: SAR Analysis of small molecule inhibitors of T-cell specific antigen receptor-induced NF-kB activation in a Jurkat cell line using a luminescence assay - Set 2. [Related pubchem assays (depositor defined):AID435003, AID435012, AID465]. The class given is functional, cell-based. Conditions: Homo sapiens.
Assay [15] can be described thus: cytotoxicity toward NIH3T3 fibroblasts, dose response, counter-screen, cell-based, ATP luminescence, mouse fibroblasts (AID 2010).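 Further: cells exposed to compound for about 90 hours before reading.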 The class given is functional.
The nature of assay [16]: cells. The class given is functional, cell-based.
The subject of assay [17] is HEK293. The experiment in a line: cytotoxicity in HEK293T NF-kB-Luc cells, SAR follow-up, cytotoxicity control for NF-kB activator project, cell-based, resazurin fluorescence (AID 493251). The assay is classed as functional. Background: The colour change of resazurin is a common sign of viable cells or microbes.
Assay [18] relates to HEK293. The experiment in a line: SAR Analysis of small molecule inhibitors of T-cell specific antigen receptor-induced NF-kB activation in a HEK-293T cell line using a luminescence assay - Set 2. [Related pubchem assays (depositor defined):AID435003, AID435012, AID489026]. The note with it: Homo sapiens. The class given is functional, cell-based.
The subject of a further assay is Streptococcus. The experiment in a line: Group A Streptococcus viability loss, dose response, counter-screen for streptokinase expression inhibitor project, luminescence, BacTiterGlo (AID 1915).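 Further: potency for reduction of bacterial viability or growth.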 The class given is functional, organism-based.
Assay [19] concerns the target ATP-dependent molecular chaperone HSP82 (Candida albicans (strain WO-1) (Yeast), UniProt C4YTQ8). The experiment in a line: loss of DOC-induced GRE-beta-galactosidase reporter signal, dose response, Hsp90 inhibitor project, S. cerevisiae, luminescence (AID 2400).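 Further: beta-galactosidase luminescence from glucocorticoid response element reporter as proxy for Hsp90 function; inhibitor potency where signal loss means Hsp90 inhibition.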 The assay is classed as functional, cell-based.
A short description of assay [20]: NIH-3T3 fibroblast cytotoxicity, dose response, cytotoxicity control, cell-based, fluorescence, Alamar Blue, secondary assay (AID 2327).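 Further: NIH-3T3 mouse fibroblasts cultured with fluconazole at 8 µg/mL.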 The assay is classed as functional.
Assay [21] addresses T3, Serine/threonine-protein phosphatase (Candida dubliniensis (strain CD36 / CBS 7987 / NCPF 3949 / NRRLY-17841) (Yeast), UniProt B9W6M3).
T3 sequence (B9W6M3 whole entry): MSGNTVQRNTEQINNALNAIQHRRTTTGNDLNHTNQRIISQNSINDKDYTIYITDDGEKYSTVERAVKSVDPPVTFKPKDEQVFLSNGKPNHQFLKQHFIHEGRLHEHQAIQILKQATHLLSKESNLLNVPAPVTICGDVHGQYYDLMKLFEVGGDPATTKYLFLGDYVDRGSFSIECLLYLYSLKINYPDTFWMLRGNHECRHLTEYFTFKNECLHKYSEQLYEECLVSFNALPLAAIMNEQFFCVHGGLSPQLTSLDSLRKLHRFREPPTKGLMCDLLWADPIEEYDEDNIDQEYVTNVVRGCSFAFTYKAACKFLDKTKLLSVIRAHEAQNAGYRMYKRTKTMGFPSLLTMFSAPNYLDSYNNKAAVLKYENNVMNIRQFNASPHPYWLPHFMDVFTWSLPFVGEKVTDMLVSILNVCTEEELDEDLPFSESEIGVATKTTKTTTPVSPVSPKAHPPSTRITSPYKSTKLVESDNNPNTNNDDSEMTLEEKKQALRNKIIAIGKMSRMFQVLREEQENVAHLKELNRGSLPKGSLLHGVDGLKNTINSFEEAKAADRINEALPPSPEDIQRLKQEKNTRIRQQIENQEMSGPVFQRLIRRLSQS
The assay is described as follows: calcineurin pathway inhibitors in yeast reporter, dose response, S. cerevisiae, CDRE-lacZ, luminescence, secondary (AID 2388).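 Further: yeast reporter cells carrying a calcineurin-responsive lacZ construct stimulated with calcium chloride; luminescent beta-galactosidase reporter signal in whole cells rather than isolated phosphatase activity; potency for inhibition where a drop in reporter signal means calcineurin blockade.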 The class given is functional, cell-based.

For assay [22], the system named is Streptococcus sp. 'group A'. The assay is described as follows: growth inhibition of control SK(-) GAS strain, dose response, counter-screen for streptokinase expression inhibitor project, luminescence, kanamycin, BacTiterGlo, confirmation (AID 1900). The assay is classed as functional, organism-based.
Assay [23] can be described thus: cytotoxicity in HEK-293T cells, dose response, cytotoxicity control for TCR NF-kB inhibitor project, luminescence, T-cell screen hits (AID 489026).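 Further: cells exposed to compound about 14 hours before the viability readout.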 The class given is functional, cell-based.
Assay [24] can be described thus: cells. The class given is functional, cell-based. The source holds these as a separate data set.
The subject of a further assay is INS1. The experiment in a line: beta cell apoptosis inhibitors, cytokine rescue, dose response, luminescence, retest (AID 449756).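 Further: cell death triggered by IL-1 beta plus TNF-alpha plus IFN-gamma mixture; protective hits raise ATP signal compared with cytokine alone wells.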 Conditions: Rattus norvegicus. The assay is classed as functional, cell-based.

Structures are written as SMILES. Calls of active or inactive are those of the source.

The IC50 is the concentration at which inhibition is half-maximal. For orientation: CC50 means the concentration at which the toxic effect on the cells reaches its halfway point. In general, EC50 refers to the concentration giving half of the maximal effect. In general, AC50 refers to the concentration giving half of the maximal activity seen.

Chain of ATP-dependent molecular chaperone HSP82 (C4YTQ8 whole entry): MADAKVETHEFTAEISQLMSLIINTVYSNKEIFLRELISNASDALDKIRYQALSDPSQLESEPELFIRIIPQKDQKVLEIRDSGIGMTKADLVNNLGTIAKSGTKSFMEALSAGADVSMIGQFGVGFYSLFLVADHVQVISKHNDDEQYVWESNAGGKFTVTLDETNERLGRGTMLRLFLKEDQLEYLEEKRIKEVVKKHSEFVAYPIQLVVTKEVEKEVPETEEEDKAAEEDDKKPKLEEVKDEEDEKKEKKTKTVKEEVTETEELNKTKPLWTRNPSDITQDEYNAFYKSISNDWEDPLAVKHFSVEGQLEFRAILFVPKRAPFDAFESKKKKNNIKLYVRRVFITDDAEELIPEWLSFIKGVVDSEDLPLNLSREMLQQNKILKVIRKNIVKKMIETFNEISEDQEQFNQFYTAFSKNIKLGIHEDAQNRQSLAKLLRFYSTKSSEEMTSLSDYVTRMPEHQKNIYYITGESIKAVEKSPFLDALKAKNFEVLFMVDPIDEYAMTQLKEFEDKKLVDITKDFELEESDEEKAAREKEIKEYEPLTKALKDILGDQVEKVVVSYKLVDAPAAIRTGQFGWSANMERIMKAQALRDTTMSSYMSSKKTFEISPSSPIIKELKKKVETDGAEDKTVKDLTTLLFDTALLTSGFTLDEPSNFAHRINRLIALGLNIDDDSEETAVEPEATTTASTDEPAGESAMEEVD
Chain of Beta-2 adrenergic receptor (P07550 whole entry): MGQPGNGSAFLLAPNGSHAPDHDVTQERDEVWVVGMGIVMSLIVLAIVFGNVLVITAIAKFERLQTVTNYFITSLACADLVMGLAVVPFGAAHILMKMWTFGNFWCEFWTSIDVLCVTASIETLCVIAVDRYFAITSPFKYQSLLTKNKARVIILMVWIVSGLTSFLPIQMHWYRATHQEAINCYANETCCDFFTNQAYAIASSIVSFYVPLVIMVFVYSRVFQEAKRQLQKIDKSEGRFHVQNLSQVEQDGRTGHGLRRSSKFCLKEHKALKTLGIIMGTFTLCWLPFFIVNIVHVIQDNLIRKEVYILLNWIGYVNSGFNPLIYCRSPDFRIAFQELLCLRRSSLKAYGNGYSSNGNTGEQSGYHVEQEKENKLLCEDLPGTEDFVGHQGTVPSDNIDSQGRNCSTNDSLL
Chain of Nonstructural protein 1 (Q194T2 whole entry): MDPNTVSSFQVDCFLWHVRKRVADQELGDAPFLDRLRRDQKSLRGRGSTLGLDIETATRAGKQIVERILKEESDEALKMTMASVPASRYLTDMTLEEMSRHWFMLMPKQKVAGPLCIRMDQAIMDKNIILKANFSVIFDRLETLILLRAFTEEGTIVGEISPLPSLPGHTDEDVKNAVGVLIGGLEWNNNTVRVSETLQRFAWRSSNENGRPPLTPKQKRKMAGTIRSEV

In the case of `O=C(Nc1cccc(CNCCc2c[nH]c3ccccc23)c1)c1ccccc1Cl`, the IC50 at Nonstructural protein 1 is > 100 µM (active); with MDCK [1], 2.93 µM (active); in the assay with MDCK [2], > 100 µM (active); in [3], 17.4 µM (active). The cytotoxic concentration (CC50) with MDCK [4] was 10.9 µM (active); with Vero, 22.4 µM (active).

For the molecule `Cc1ccc(OCc2nnc(SCc3nc4ccccc4[nH]3)n2Cc2ccco2)cc1`, the EC50 in [5] is 1.08 µM (active).

Turning to `CCCC(=O)NC(c1ccc(C)cc1)c1ccc2cccnc2c1O` (stereo unspecified), the AC50 was 4.94 µM (active) in the assay with HEK293 [6], 3.35 µM (active) in assay [10] and 0.535 µM (active) with INS1. Further, the IC50 at Exodeoxyribonuclease V was > 119 µM (inactive); in the assay with Jurkat [7], 3.79 µM (active); in the assay with HEK293 [9], 6.94 µM (active); in assay [12], 1.47 µM (active); in assay [13], > 119 µM (inactive); in the assay on Jurkat [14], 2.52 µM (active). In addition, the 50% inhibitory concentration (IC50) in the assay with HEK293 [17] (Homo sapiens, HEK293) is 8.08 µM (active); in the assay on HEK293 [17] (hek293) it was 5.93 µM (active); with HEK293 [18] it was 6.36 µM (active); in assay [23], > 80 µM (inactive). For the same molecule, the EC50 is 0.449 µM (active) in [8]; > 150 µM (not active) on Streptokinase A; 0.348 µM (active) in assay [11]; 0.588 µM (active) in [15]; 6.34 µM (active) in “cells [16]”; 14.7 µM (active) in the assay on Streptococcus. Besides, the EC50 is > 150 µM (inactive) in [19]; 23.6 µM (inconclusive) in assay [20]; > 180 µM (inactive) in [21]; 6.65 µM (active) in [22]; > 350 µM (not active) in “cells [24]”.

(Values after ChEMBL document CHEMBL1201862, “PubChem BioAssay data set” (2004).)
